Tests used:
Plasmodium falciparum [1] = experiment: NOVARTIS: Inhibition of Plasmodium falciparum W2 (drug-resistant) proliferation in erythrocyte-based infection assay; type: functional, organism-based
[2] = NOVARTIS: Cytotoxicity against human hepatocellular carcinoma cell line (Huh7); type: toxicity, cell-based, Huh-7; settings: Huh7 cells (hepatocellular carcinoma cell line)
Plasmodium falciparum [3] = experiment: NOVARTIS: Inhibition of Plasmodium falciparum 3D7 (drug-susceptible) proliferation in erythrocyte-based infection assay; type: functional, organism-based
[4] = Plasmodium falciparum, W2, read-out: EC50

SMILES | EC50 (Plasmodium falciparum [1]; [4]) [nM] | CC50 [2] [nM] | EC50 (Plasmodium falciparum [3]; Plasmodium falciparum, 3D7) [nM] | EC50 (Plasmodium falciparum [1]) | EC50 (Plasmodium falciparum [1]; read-out: EC50) [nM] | EC50 (Plasmodium falciparum [3]) [nM]
CC1CC(C)CN(S(=O)(=O)c2ccc(C(=O)Nc3ccc(-c4nc5ccccc5o4)cc3)cc2)C1 (centres undefined) | > 1250 | > 10000 | 1200 |  |  | 
Brc1ccc2ncnc(NCC3CCCO3)c2c1 (centres undefined) | 3750 | > 100000 | > 12500 |  |  | 
CC(C)(C)CC(C)(C)Nc1c(-c2ccccc2OC(=O)c2ccc(C(F)(F)F)cc2)nc2ccccn12 | 64 | > 10000 | 670 |  |  | 
CCCCN(C)C(=O)c1sc2ncn(CC(=O)N(CC)CC)c(=O)c2c1C | > 1010 | > 10000 | > 1250 |  |  | 
Cc1cn2c3ccccc3n(CCN3CCCC3)c2n1 | 889 | 60500 | 995 |  |  | 
COc1ccc2c(C)nc(NC(=N)N)nc2c1 | 1020 | 66400 | 417 |  |  | 
CC(C)N(CC(=O)Nc1cc(C(C)(C)C)nn1-c1ccc(Cl)c(Cl)c1)C(=O)c1ccc(C(C)(C)C)cc1 | 7330 | > 100000 | 6030 |  |  | 
CC1=C(C(=O)OC(C)C)C(c2cccc([N+](=O)[O-])c2)C2=C(CCCC2=O)N1 (centres undefined) | 854 | > 100000 | > 11100 |  |  | 
COc1cc2c3c(c4cc(OC)c(OC)cc4c2cc1OC)CN1CCC[C@@H]1C3 [TYLOPHORINE] | 963 | > 7910 | > 509 |  |  | 
O=c1c(NCc2ccco2)nc2cc(Cl)ccc2n1CCNc1ncc(C(F)(F)F)cc1Cl | 2330 | 63800 | 810 |  |  | 
CCOc1cc2c(cc1OCC)C(c1ccc(O)c(Cl)c1)NCC2 (centres undefined) | 12.5 | > 97900 | 157 |  |  | 
O=C(CCCc1nc(-c2ccccc2)no1)NCc1cccnc1 | 1130 | > 10000 | > 1770 |  |  | 
COc1ccc(OC)c(-c2ccc(O)c(CNCC3CCCCC3)c2)c1 | 120 | > 10000 | 350 |  |  | 
O=C(NCc1ccco1)c1cccc(Cl)c1Cl | 1340 | > 10000 | > 1250 |  |  | 
CC(=O)N1CCOC1C(C)(C)CC=C(C)CCC=C(C)C (centres undefined) | 1340 | > 100000 | 2040 |  |  | 
CCOc1cc(C2C(C(=O)OC)=CNC=C2C(=O)OC)cc(Br)c1OCC | 277 | > 100000 | 388 |  |  | 
O=C(CN(CCN1CCOCC1)S(=O)(=O)c1ccccn1)N1CCN(C(c2ccccc2)c2ccccc2)CC1 | 4440 | > 28800 | > 12500 |  |  | 
O=C(Nc1ccc(C2=NCCCN2)cc1)c1ccc(C(=O)Nc2ccc(C3=NCCCN3)cc2)cc1 | 93.2 | > 100000 | 120 |  |  | 
Cc1ccc(NC=C2C(=O)NC(=S)NC2=O)cc1 | > 9490 | > 100000 | > 12500 |  |  | 
COc1cccc2c1C(=O)c1c(O)c3c(c(O)c1C2=O)C[C@@](O)(C(=O)CO)C[C@@H]3O[C@@H]1C[C@H](N)[C@H](O)[C@H](C)O1 | 47.7 | 485 | 48.6 |  |  | 
O=C1CN=C(c2ccccc2)c2cc(Cl)ccc2N1Cc1cc(=O)n2ccccc2n1 | 344 | > 100000 | 3550 |  |  | 
CC(C)CNc1nc(NCCCN2CCCCC2C)ncc1C(=O)NCCc1ccccc1 (centres undefined) | 729 | > 10000 | 383 |  |  | 
CC(C)N1CCCc2cc(CN3CCC(n4cc(C(=O)NCCCO)nn4)CC3)ccc21 | 134 | > 10000 | > 1250 |  |  | 

SMILES | EC50 (Plasmodium falciparum [1]; [4]) [nM] | CC50 [2] [nM] | EC50 (Plasmodium falciparum [3]; Plasmodium falciparum, 3D7) [nM] | EC50 (Plasmodium falciparum [1]) | EC50 (Plasmodium falciparum [1]; read-out: EC50) [nM] | EC50 (Plasmodium falciparum [3]) [nM]
CCc1cc(=O)n(C)c(SC(C)C(=O)Nc2ccc(F)cc2)n1 (centres undefined) | 729 | > 10000 | 756 |  |  | 
COc1cc(Cl)c(C)cc1NC(=O)C1c2ccccc2C(=O)N(CC(C)C)C1c1cccs1 (centres undefined) | 373 | > 100000 | 578 |  |  | 
C=CCNC(=O)c1ccc2c(c1)N=C(CC(C)c1ccccc1)N(CCCN1CCCC1=O)C2 (centres undefined) | 26.7 | > 10000 | > 1250 |  |  | 
N=C(N)NN=Cc1cc(Cl)ccc1O |  | > 1860 | 12.8 | No fit |  | 
CC(Cc1ccccc1)NCc1ccccc1O (centres undefined) | < 4.93 | > 10000 | 525 |  |  | 
CCCCN1Cc2ccc(C(=O)NC(C)C)cc2N=C1c1ccc(F)cc1 | 325 | > 10000 | 722 |  |  | 
COc1cc([C@@H]2OC[C@@H]3[C@H]2CO[C@H]3c2cc(OC)c(O[C@@H]3O[C@H](CO)[C@@H](O)[C@H](O)[C@H]3O)c(OC)c2)cc(OC)c1O [ACANTHOSIDE B] | 388 | > 10000 | 771 |  |  | 
Cc1cc(N2CCCCC2)nc(NCc2ccccc2)n1 | 739 | 38400 | 5760 |  |  | 
CCc1nc2nc(C)cc(Nc3ccc(C)c(F)c3)n2n1 | 140 | > 100000 | 248 |  |  | 
Cc1ccc(CSCc2ccc(C(=O)NC3CC3)o2)cc1 | 133 | > 100000 | 418 |  |  | 
Cc1cc(NC2CCCCC2)nc(NCc2ccccc2)n1 | 364 | 7870 | 296 |  |  | 
COc1cc(C(=O)C=CNc2ccc(N(C)C)cc2)cc(OC)c1OC | 905 | > 100000 | 2070 |  |  | 
CCCCNCCOCCOc1ccc(Br)cc1 | 1610 | 35700 | > 11700 |  |  | 
COc1ccc(CN(Cc2cc3cccc(C)c3[nH]c2=O)C(=S)NC2CCCCC2)cc1 | 487 | > 10000 | > 1250 |  |  | 
N#Cc1ccc(-c2cnc(N)c(-c3ccc(C(N)=O)cc3)n2)cc1 | 99.8 | > 100000 | 60.3 |  |  | 
CCCOC(=O)C1=C(C)NC2=C(C(=O)CC(c3ccc(OC)c(OC)c3)C2)C1c1ccccc1Cl (centres undefined) | 44.8 | > 100000 | 66.2 |  |  | 
CC(=O)Nc1ccc(NC2=CC(=NS(=O)(=O)c3ccccc3)c3ccccc3C2=O)cc1 | 466 | 6880 | 509 |  |  | 
COc1cc(NC(C)CCCN(Cc2ccc(OC)c(OC)c2)C(=O)c2ccccc2)c2ncccc2c1 (centres undefined) | 103 | > 10000 | 529 |  |  | 
C=CC1CN2CCC1CC2C(OC(C)=O)c1ccnc2ccc(OC)cc12 (centres undefined) | 213 | > 100000 | 240 |  |  | 
CCCCCCN(C(=O)CCc1ccccc1)C(CC)c1nc2ccccc2c(=O)n1-c1ccc(Cl)cc1 (centres undefined) | 26.7 | > 10000 | 1160 |  |  | 
O=C(NC(=CC=Cc1ccccc1)C(=O)N1CCOCC1)c1ccc(Br)cc1 | 683 | > 100000 | > 10400 |  |  | 
CCCCNC(=O)C(c1cccc(OC)c1)N1C(=O)c2cc(OCCCC)ccc2NC(=O)C1CO (centres undefined) | 168 | > 2370 | 205 |  |  | 
COc1ccc(-c2c[n+](Cc3ccc(Cl)cc3Cl)c3n2CCC3)cc1 | 667 | 31800 | 189 |  |  | 

SMILES | EC50 (Plasmodium falciparum [1]; [4]) [nM] | CC50 [2] [nM] | EC50 (Plasmodium falciparum [3]; Plasmodium falciparum, 3D7) [nM] | EC50 (Plasmodium falciparum [1]) | EC50 (Plasmodium falciparum [1]; read-out: EC50) [nM] | EC50 (Plasmodium falciparum [3]) [nM]
CC(C)OC(=O)NC(Nc1ccccc1)C(Cl)(Cl)Cl (centres undefined) | > 1080 | > 10000 | > 1080 |  |  | 
CC(=O)Nc1cc(C(=O)Nc2ccc(C3=NCCN3)cc2)ccc1C(=O)Nc1ccc(C2=NCCN2)cc1 | 103 | > 100000 | 323 |  |  | 
Cc1cccc(OCC(=O)NCCNC2=NS(=O)(=O)c3ccccc32)c1 | 1680 | > 10000 | > 1120 |  |  | 
COc1cc(OC)cc(C(=O)NCc2n[nH]c(=S)n2-c2cccc(Cl)c2)c1 | 450 | > 100000 | 565 |  |  | 
CN(CCCNc1ccnc2cc(Cl)ccc12)C(=O)c1cccc(F)c1 | 490 | > 11500 | 739 |  |  | 
C=CCOC(=O)C1=C(C)N2CCSC2=C(C#N)C1c1ccco1 (centres undefined) | > 1250 | > 10000 | 1210 |  |  | 
O=C(Nc1ccccc1)C1Cc2ccccc2CN1S(=O)(=O)c1ccc(F)cc1 (centres undefined) | 6310 | > 100000 | > 12500 |  |  | 
COc1ccc(Nc2nc(NN=Cc3cccc(I)c3)nc(Nc3ccc([N+](=O)[O-])cc3)n2)cc1 | 454 | > 11700 | 305 |  |  | 
CC(=NNC(=O)c1ccc(C)cc1)c1ccccn1 | 209 | > 100000 | 350 |  |  | 
Cn1nc(C(=O)NCc2ccc(F)cc2)c2c1CCC(N1CCC(CO)CC1)C2 (centres undefined) | > 454 | > 10000 | > 1250 |  |  | 
COCCN(Cc1cc2ccc(F)cc2nc1N1CCCCCC1)C(=O)c1ccoc1 | 1110 | > 100000 | 5200 |  |  | 
CCN1CC=C(c2c[nH]c3ccccc23)CC1 | 339 | > 10000 | 885 |  |  | 
CC1=C[C@H]2O[C@@H]3C[C@H]4OC(=O)C=CC=C[C@H]([C@@H](C)O)OCC[C@@H](C)[C@H](O)C(=O)OC[C@@]2(CC1)[C@]4(C)[C@@]31CO1 |  | 6.04 |  |  | < 0.572 | < 0.572
CC1=NOC(=O)C1=Cc1ccc(-c2ccc([N+](=O)[O-])cc2)o1 | 6500 | > 100000 | > 12500 |  |  | 
Cc1ccc(-c2nn3c(O)c4c(nc3c2C)CCCC4)cc1 | 384 | > 100000 | 256 |  |  | 
CC(=O)OC(OC(C)=O)C12C=CC(O1)C1C(=O)N(c3cccc(C)c3)C(=O)C12 (centres undefined) | > 1250 | > 10000 | > 794 |  |  | 
CCCCN(C(=O)CCC(=O)Nc1cc(C)on1)C(C(=O)NC1CCCC1)c1ccc(C)o1 (centres undefined) | 36.9 | > 10000 | 22.2 |  |  | 
CCN(CC)CCNc1ccnc2cc(Cl)ccc12 | 6.01 | 29800 | 7.16 |  |  | 
Cc1cc(Br)cc(Cl)c1OC(=O)c1ccno1 | 3000 | > 100000 | > 12500 |  |  | 
Cc1ccc(-c2cc3nc4c(c(O)n3n2)CCCC4)cc1 | 2100 | > 100000 | 1600 |  |  | 
Cc1cc(N2CCN(Cc3ccccc3)CC2)n2c(nc3ccccc32)c1C#N | 832 | > 100000 | 323 |  |  | 
CCc1ccccc1-n1c(C(C)N(C)C(=O)/C=C/c2ccc([N+](=O)[O-])cc2)nc2ccccc2c1=O (centres undefined) | 174 | 8350 | 266 |  |  | 

Reference: ChEMBL document CHEMBL1156829 (Proc Natl Acad Sci U S A, 2008)
